According to US11466028B2, “Fused 1,4-oxazepines as BET protein degraders” (THE REGENTS OF THE UNIVERSITY OF MICHIGAN, priority 2016, dated 2022):

Tests used:
[1] = system: MDA-MB-231; assay: CellTiter-Glo cell growth inhibition, MDA-MB-231; format: cell-based; settings: Homo sapiens, MDA-MB-231, 96 h, 4 days, Table 4
Procedure: (§1) Cell growth inhibitory activity of representative Compounds of the Disclosure was determined using the CellTiter-Glo® Luminescent Cell Viability Assay. Cells were seeded in 384-well white opaque cell culture plates at a density of 2,000 cells/well with serially diluted compounds and incubated at 37° C. in an atmosphere of 95% air and 5% CO2 for 4 days. Cell viability was determined using the CellTiter-Glo® Luminescent Cell Viability Assay Kit (Promega, Madison, Wis.) according to the manufacture's instruction. Briefly, a volume of CellTiter-Glo® Reagent equal to the volume of cell culture medium was added to each well, and then the plates were incubated at room temperature for 10-20 minutes. The luminescent signal was measured using a Tecan Infinite M1000 multimode microplate reader (Tecan, Morrisville, N.C.). The half maximal inhibitory concentration (IC50) was calculated using the GraphPad Prism 5 software (GraphPad Software, La Jolla, Calif.).

[2] = system: MOLM-13; assay: CellTiter-Glo cell growth inhibition, MOLM-13; format: cell-based; settings: Homo sapiens, MOLM-13, 96 h, 4 days, Table 4, read-out: MOLM-13 IC50
Procedure: as §1
Cpd. Nos. 18 and 19 were tested in various leukemia cell lines using the CellTiter-Glo® Luminescent Cell Viability Assay as described in Example 35.

Row | SMILES | IC50 [1] | IC50 [2]
1 | Cc1nnc2n1-c1sc(C#CCOCCOCCOc3cccc4c3C(=O)N(C3CCC(=O)NC3=O)C4=O)c(Cc3ccccc3)c1CO[C@H]2C (stereo partly drawn) [Cpd. No. 2, 4-(2-(2-((3-((S)-3-benzyl-6,9-dimethyl-4H,6H-thieno-[2,3-e][1,2,4]triazolo[3,4-c][1,4]oxazepin-2-yl)prop-2-yn-1-yl)oxy)ethoxy)ethoxy)-2-(2,6-dioxopiperidin-3-yl)isoindoline-1,3-dione] | 223 nM | 34.6 nM
2 | Cc1nnc2n1-c1sc(C#Cc3cnn(CCOCCNc4cccc5c4C(=O)N(C4CCC(=O)NC4=O)C5=O)c3)c(Cc3ccccc3)c1CO[C@H]2C (stereo partly drawn) [Cpd. No. 9, 4-((2-(2-(4-(((S)-3-benzyl-6,9-dimethyl-4H,6H-thieno[2,3-e][1,2,4]triazolo[3,4-c][1,4]oxazepin-2-yl)ethynyl)-1H-pyrazol-1-yl)ethoxy)ethyl)amino)-2-(2,6-dioxopiperidin-3-yl)isoindoline-1,3-dione] | 4.7 nM | 1.1 nM
3 | Cc1nnc2n1-c1sc(C#CCOCCOCCOCCNc3cccc4c3C(=O)N(C3CCC(=O)NC3=O)C4=O)c(Cc3ccccc3)c1CO[C@H]2C (stereo partly drawn) [Cpd. No. 4, 4-((2-(2-(2-((3-((S)-3-benzyl-6,9-dimethyl-4H,6H-thieno[2,3-e][1,2,4]triazolo[3,4-c][1,4]oxazepin-2-yl)prop-2-yn-1-yl)oxy)ethoxy)ethoxy)ethyl)amino)-2-(2,6-dioxopiperidin-3-yl)isoindoline-1,3-dione] | 12.8 nM | 0.8 nM
4 | Cc1nnc2n1-c1sc(C#Cc3cnn(CCCNc4cccc5c4C(=O)N(C4CCC(=O)NC4=O)C5=O)c3)c(Cc3ccccc3)c1CO[C@H]2C (stereo partly drawn) [Cpd. No. 10, 4-((3-(4-(((S)-3-benzyl-6,9-dimethyl-4H,6H-thieno[2,3-e][1,2,4]triazolo[3,4-c][1,4]oxazepin-2-yl)ethynyl)-1H-pyrazol-1-yl)propyl)amino)-2-(2,6-dioxopiperidin-3-yl)isoindoline-1,3-dione] | 34 nM | 2.6 nM

Other lines, results leading:

Row | IC50 [1] | IC50 [2] | SMILES
5 | 1700 nM | 804 nM | Cc1nnc2n1-c1sc(C#CCOCCNc3cccc4c3C(=O)N(C3CCC(=O)NC3=O)C4=O)c(Cc3ccccc3)c1CO[C@H]2C (stereo partly drawn) [Cpd. No. 1, 4-((2-((3-((S)-3-benzyl-6,9-dimethyl-4H,6H-thieno[2,3-e][1,2,4]triazolo[3,4-c][1,4]oxazepin-2-yl)prop-2-yn-1-yl)oxy)ethyl)amino)-2-(2,6-dioxopiperidin-3-yl) isoindoline-1,3-dione]
6 | 64 nM | 60 nM | Cc1nnc2n1-c1sc(C#Cc3cnn(CCNc4cccc5c4C(=O)N(C4CCC(=O)NC4=O)C5=O)c3)c(Cc3ccccc3)c1CO[C@H]2C (stereo partly drawn) [Cpd. No. 6, 4-((2-(4-(((S)-3-benzyl-6,9-dimethyl-4H,6H-thieno[2,3-e][1,2,4]triazolo[3,4-c][1,4]oxazepin-2-yl)ethynyl)-1H-pyrazol-1-yl)ethyl)amino)-2-(2,6-dioxopiperidin-3-yl)isoindoline-1,3-dione]
7 | 49 nM | 2.6 nM | Cc1nnc2n1-c1sc(C#CCOCCOCCNc3cccc4c3C(=O)N(C3CCC(=O)NC3=O)C4=O)c(Cc3ccccc3)c1CO[C@H]2C (stereo partly drawn) [Cpd. No. 3, 4-((2-(2-((3-((S)-3-benzyl-6,9-dimethyl-4H,6H-thieno[2,3-e][1,2,4]triazolo[3,4-c][1,4]oxazepin-2-yl)prop-2-yn-1-yl)oxy)ethoxy)ethyl)amino)-2-(2,6-dioxopiperidin-3-yl)isoindoline-1,3-dione]
8 | 6.1 nM | 0.7 nM | Cc1nnc2n1-c1sc(C#CCOCCOCCOCCOCCNc3cccc4c3C(=O)N(C3CCC(=O)NC3=O)C4=O)c(Cc3ccccc3)c1CO[C@H]2C (stereo partly drawn) [Cpd. No. 5, 4-((15-((S)-3-benzyl-6,9-dimethyl-4H,6H-thieno[2,3-e][1,2,4]triazolo[3,4-c][1,4]oxazepin-2-yl)-3,6,9,12-tetraoxapentadec-14-yn-1-yl)amino)-2-(2,6-dioxopiperidin-3-yl)isoindoline-1,3-dione]
